Experimental data published in US9555013B2, “Modulation of fibroblast activity” (The University of Leicester, priority 2008, dated 2017).
Entries after “also recorded” stand apart in the source; their conditions may differ.

Assays:
[1] = system: full-thickness 6 mm excisional wounds; assay: Murine excisional wound model with immunohistochemistry; conditions: for murine wound closure (wound area): FIG. 3, 0.1% in 100 μl hydroactive gel, topical, daily
Method: FVB/NJ (β2-AR+/+) mice, were purchased from The Jackson laboratory (Bar Harbor, Me.). All animals used in the study were females between 8-12 weeks of age. β2-AR+/+ mice were anaesthetized by intraperitoneal injection of ketamine (100 mg/kg)/xylazine (10 mg/kg) (Pfizer). Back skin was shaved and two circular full-thickness 6 mm excisional wounds were created 2 cm apart, in the centre of the back, using a sterile 6 mm biopsy punch (SMS Inc.). […] Each mouse was housed separately after wounding until wound harvest. Wounds were left uncovered and digitally photographed, daily, to determine wound contraction over time. Wounds were harvested at days 3 and 5 post-wounding by carefully applying an 8 mm punch (SMS Inc.) around the original wound site and lightly pressing to form an outline on the skin. Scissors were then used to remove the wound site without damaging the delicate wound bed.
For histological analysis the wounds were fixed in an IHC zinc fixative (BD Biosciences). The zinc-fixed biopsies were bisected to ensure that sections were taken from the centre of the wound, dehydrated through an ethanol xylene series, and embedded in paraffin.
Specimens that were damaged in the histological process or otherwise non-interpretable were excluded from the study. Wound closure was quantified by measuring the wound area of each wound from the digital pictures taken every day with Image J, National Institutes of Health website. Images of the smooth muscle-alpha actin (SMA)-stained wounds were captured at 2× magnification on a Nikon SMZ-U upright microscope with Nikon ACT-1 software (as shown in FIG. 4). Image J was used to determine the area of SMA staining in each wound to calculate the mean area of SMA staining in each group (as shown in FIG. 5). Images of the collagen III stained wounds were captured at 20× magnification on a Nikon Eclipse 2000U inverted microscope with NIS-Elements software (as shown in FIG. 6). The intensity of collagen III staining was graded on a scale of 0-6, no staining receiving a score of 0 and the darkest staining receiving a score of 6 (as shown in FIG. 7). The staining of each wound was scored in a double-blind manner and the mean staining intensity was calculated for each group.

Human dermal fibroblasts [2] = assay: Secretion of TGF-β1, TGF-β2, TGF-β3 from dermal fibroblasts (ELISA); type: cell-based; conditions: FIG. 9
Method: (§1) Human dermal fibroblasts (FIGS. 9 and 15) or human neutrophils (VEGF only) (FIG. 15) were seeded into 6-well plates and grown to 60% confluence in FM. […] The supernatants were prepared and assayed using ELISA kits for TGF-β1, TGF-β2, 15 TGF-β3 and VEGF (R & D systems) following the Manufacturer's instructions.

Human dermal fibroblasts [3] = assay: Tethered (anchored) collagen gel model of wounded dermis; type: cell-based; conditions: 10 μM, 4 days incubation; for collagen I staining in fibroblasts released from collagen gels: FIG. 8B; for smooth muscle alpha actin staining in fibroblasts released from collagen gels: FIG. 8D
Method: 50% collagen I gels were seeded with 30,000 cells per ml in the absence or presence of a β2-AR agonist or a β2-AR antagonist.

dermal fibroblasts = assay: Floating collagen gel contraction assay; type: cell-based; conditions: FIG. 2; 10 nM
Method: The individual solutions were prepared and cooled to 4° C. before mixing to prevent premature gelation. The final solution contained 40% (v/v) Vitrogen, 20% DMEM, 30% DMEM with Hepes buffer, and 10% calf serum. Cells were incubated with the appropriate drug concentration for 30 minutes at 37° C. and added to the collagen gel mix just before gel casting at the concentration of 30,000 per ml. The lattices were cast, with 1.7 ml of the final solution per dish, in 35 mm bacteriologic dishes (Falcon Labware, BD Biosciences), to which fibroblasts poorly adhere. The mixture gelled within 30 minutes upon incubation at 37° C. in a humidified atmosphere of 95 percent air and 5 percent CO2.
To determine the effect of β2-AR antagonists on floating gel contraction (as shown in FIG. 2), lattices were detached from the sides of the dishes after 2 hours by rimming the edges of the dishes using a sterile […] and gently shaking the dishes until the gels slid freely. Lattice retraction was measured every day by placing the dishes over a flat ruler on a black background. To determine the effect of β2-AR agonists and antagonists on proliferation of cells in a model of the wound dermis, the gels remained anchored to the side of the dish (as shown in FIG. 8).

Human dermal fibroblasts [4] = assay: Secretion of VEGF from dermal fibroblasts (ELISA); type: cell-based; conditions: FIG. 15; after 48 hours; vs control
Method: as §1

human neutrophils = assay: Secretion of VEGF from neutrophils (ELISA); type: cell-based; conditions: FIG. 15; after 48 hours; vs control
Method: as §1

Row | Structure (SMILES) | murine wound closure (wound area) [1] | increase in amount of TGF-β3 secreted (Human dermal fibroblasts [2]; 10 μM, 24 hours, vs control) | collagen I staining in fibroblasts released from collagen gels (Human dermal fibroblasts [3]) | smooth muscle alpha actin staining in fibroblasts released from collagen gels (Human dermal fibroblasts [3]) | amount of VEGF secreted from human dermal fibroblasts (Human dermal fibroblasts [4]) | amount of VEGF secreted from human neutrophils (human neutrophils) | also measured
1 | Cc1ccc(OCC(O)C(C)NC(C)C)c2c1CCC2 (stereo not drawn) [ICI 118,551] | enhances; also recorded: acceleration | no effect | increases | increases | – | – | smooth muscle α-actin staining / expressing cells in the wound dermis ([1]; FIGS. 4 and 5, 5 days post wounding, 0.1% topical daily, vs controls): increase; collagen III deposition (staining) in the wound dermis ([1]; FIGS. 6 and 7, 5 days post wounding, 0.1% topical daily, vs controls): increase; increase in TGF-β1 levels (Human dermal fibroblasts [2]; 10 μM, 24 hours, vs control): 3 fold; increase in TGFβ2 levels (Human dermal fibroblasts [2]; 10 μM, after 6 hours, vs control): 1.6 fold; increase in TGF-β2 levels (Human dermal fibroblasts [2]; time given as 24 hours, not stated): 1.6 fold; rigidity of human dermal fibroblast-seeded collagen gels (Human dermal fibroblasts [3]; FIG. 8A): increases; dermal fibroblast-mediated floating collagen gel contraction (dermal fibroblasts): enhance
2 | COc1ccc(CC(C)NCC(O)c2ccc(O)c(NC=O)c2)cc1 (stereo not drawn) [formotorol] | – | – | – | – | decrease | – | –
3 | CC(C)NCC(O)c1ccc(O)c(O)c1 (stereo not drawn) [isoproterenol] | – | – | – | – | decrease | decrease | –
4 | CC(C)(C)NCC(O)c1ccc(O)c(CO)c1 (stereo not drawn) [salbutamol] | delayed | 5 fold | decreases | decreases | decrease | decrease | decrease in amount of TGF-β1 secreted (Human dermal fibroblasts [2]; 10 μM, 24 hours, vs control): 4 fold; decrease in amount of secreted TGFβ1 (Human dermal fibroblasts [2]; 10 μM, after 24 hours, vs control): 74%; human dermal fibroblast proliferation in collagen gels (Human dermal fibroblasts [3]; FIG. 8C): decreases
5 | OCc1cc(C(O)CNCCCCCCOCCCCc2ccccc2)ccc1O (stereo not drawn) [salmeterol] | – | – | – | – | decrease | decrease | –
6 | CC(C)(C)NC[C@H](O)COc1nsnc1N1CCOCC1 [timolol] | – | – | – | – | increase | increase | –
